{"source": "patent US8937062B2", "about": "“Compositions and methods for treating, reducing, ameliorating, or preventing infections caused by antibacterial drug-resistant bacteria” (Bausch & Lomb Incorporated, priority 2007, dated 2015)", "assay_type_in_all_cases": "cell-based", "key": {"[1]": {"system": "APC-resistant Haemophilus influenza.", "test": "MIC90, agar plate dilution method (NCCLS), Table 2", "settings": "for MIC90: Haemophilus", "protocol": "(§1) The MIC90 values for this test were determined by the agar plate dilution method according to the National Committee for Clinical Laboratory Standards (“NCCLS”)."}, "[2]": {"system": "GM-resistant P. aeruginosa", "test": "MIC90, agar plate dilution method (NCCLS), Table 2", "settings": "10 isolates", "protocol": "as §1"}, "GM-resistant S. aureus": {"system": "GM-resistant S. aureus", "test": "MIC90, agar plate dilution method (NCCLS), Table 2", "settings": "Staphylococcus aureus, 10 isolates, read-out: MIC90 Geometric Mean", "protocol": "as §1"}, "[3]": {"system": "OFLX-resistant Enterobacteriaceae", "test": "MIC90, agar plate dilution method (NCCLS), Table 2", "protocol": "as §1"}, "OFLX-resistant S. aureus": {"system": "OFLX-resistant S. aureus", "test": "MIC90, agar plate dilution method (NCCLS), Table 2", "settings": "Staphylococcus aureus, 10 isolates, read-out: MIC90 Geometric Mean", "protocol": "as §1"}, "[4]": {"system": "PCG-resistant S. pneumoniae", "test": "MIC90, agar plate dilution method (NCCLS), Table 2", "settings": "10 isolates", "protocol": "as §1"}, "[5]": {"system": "E. cloacae, extended-spectrum β-lactamase positive", "test": "MIC90, broth microdilution (CLSI M7-A7), Table 4", "settings": "Enterobacter cloacae, 15 isolates", "protocol": "(§2) The MIC90 values were determined according to the broth microdilution method outlined in the Clinical and Laboratory Standards Institute Approved Standard M7-A7 (2006)."}, "[6]": {"system": "H. influenzae, β-lactamase positive, ampicillin-resistant", "test": "MIC90, broth microdilution (CLSI M7-A7), Table 4", "settings": "25 isolates; for MIC90: Haemophilus influenzae", "protocol": "as §2"}, "[7]": {"system": "H. influenzae, β-lactamase positive", "test": "MIC90, broth microdilution (CLSI M7-A7), Table 4", "settings": "53 isolates; for MIC90: Haemophilus influenzae", "protocol": "as §2"}, "[8]": {"system": "S. aureus, methicillin- and ciprofloxacin-resistant", "test": "MIC90, broth microdilution (CLSI M7-A7), Table 4", "settings": "Staphylococcus aureus, 24 isolates", "protocol": "as §2"}, "[9]": {"system": "S. aureus, methicillin-resistant and ciprofloxacin-sensitive", "test": "MIC90, broth microdilution (CLSI M7-A7), Table 4", "settings": "25 isolates; for MIC90: Staphylococcus aureus", "protocol": "as §2"}, "[10]": {"system": "S. aureus, vancomycin-intermediately resistant", "test": "MIC90, broth microdilution (CLSI M7-A7), Table 4", "settings": "Staphylococcus aureus, 23 isolates", "protocol": "as §2"}, "[11]": {"system": "S. aureus, vancomycin-resistant", "test": "MIC90, broth microdilution (CLSI M7-A7), Table 4", "settings": "Staphylococcus aureus, 3 isolates, read-out: MIC90 Geometric Mean", "protocol": "as §2"}, "[12]": {"system": "S. epidermidis, methicillin-resistant", "test": "MIC90, broth microdilution (CLSI M7-A7), Table 4", "settings": "Staphylococcus epidermidis, 64 isolates", "protocol": "as §2"}, "[13]": {"system": "S. pneumoniae, levofloxacin-resistant", "test": "MIC90, broth microdilution (CLSI M7-A7), Table 4", "settings": "Streptococcus pneumoniae, 25 isolates", "protocol": "as §2"}, "[14]": {"system": "S. pneumoniae, penicillin-intermediately resistant", "test": "MIC90, broth microdilution (CLSI M7-A7), Table 4", "settings": "Streptococcus pneumoniae, 26 isolates", "protocol": "as §2"}, "[15]": {"system": "S. pneumoniae, penicillin-resistant", "test": "MIC90, broth microdilution (CLSI M7-A7), Table 4", "settings": "26 isolates; for MIC90: Streptococcus pneumoniae", "protocol": "as §2"}, "[16]": {"system": "S. aureus Clinical Isolates", "test": "In vitro activity against clinical isolates, sixth test, Table 7", "settings": "Staphylococcus aureus, 49 isolates"}, "[17]": {"system": "S. pneumoniae Clinical Isolates", "test": "In vitro activity against clinical isolates, sixth test, Table 7", "settings": "78 isolates; for MIC90: Streptococcus pneumoniae"}}, "note": "Where two headings read alike, the source gives them in different places."}
{"smiles": "O=C(O)c1cn(C2CC2)c2cc(N3CCNCC3)c(F)cc2c1=O", "note": "[CPLX, ciprofloxacin]", "values": [{"measurement": "MIC90 Range", "setting": "[1]; APC-resistant Haemophilus influenza., 10 isolates", "value": "≦0.06 μg/ml"}, {"measurement": "MIC90", "setting": "[1]; read-out: MIC90 Geometric Mean", "value": "≤ 0.06", "unit": "µg/mL"}, {"measurement": "MIC90", "setting": "[1]; read-out: MIC90 Value", "value": "≤ 0.06", "unit": "µg/mL"}, {"measurement": "MIC90 Range", "setting": "[2]", "value": "0.13 to 32", "unit": "µg/mL"}, {"measurement": "MIC90", "setting": "[2]; Pseudomonas aeruginosa, read-out: MIC90 Geometric Mean", "value": 1.87, "unit": "µg/mL"}, {"measurement": "MIC90", "setting": "GM-resistant S. aureus", "value": 26, "unit": "µg/mL"}, {"measurement": "MIC90 Range", "setting": "[3]; OFLX-resistant Enterobacteriaceae, 10 isolates", "value": "4 to 32", "unit": "µg/mL"}, {"measurement": "MIC90", "setting": "[3]; read-out: MIC90 Geometric Mean", "value": 10.6, "unit": "µg/mL"}, {"measurement": "MIC90", "setting": "OFLX-resistant S. aureus", "value": 147, "unit": "µg/mL"}, {"measurement": "MIC90 Range", "setting": "[4]", "value": "0.5 to 2", "unit": "µg/mL"}]}
{"smiles": "COc1c(N2CCNC(C)C2)c(F)cc2c(=O)c(C(=O)O)cn(C3CC3)c12", "note": "(stereo not shown) [GTFX, gatifloxacin]", "values": [{"measurement": "MIC90", "setting": "[5]; read-out: MIC90 Geometric Mean", "value": 1.58, "unit": "µg/mL"}, {"measurement": "MIC90", "setting": "[5]; read-out: MIC90 Value", "value": "> 8", "unit": "µg/mL"}, {"measurement": "MIC90 Range", "setting": "[6]", "value": "0.008 to 0.06", "unit": "µg/mL"}, {"measurement": "MIC90", "setting": "[6]; read-out: MIC90 Geometric Mean", "value": 0.022, "unit": "µg/mL"}, {"measurement": "MIC90", "setting": "[6]; read-out: MIC90 Value", "value": 0.03, "unit": "µg/mL"}, {"measurement": "MIC90", "setting": "[7]; read-out: MIC90 Geometric Mean", "value": 0.014, "unit": "µg/mL"}, {"measurement": "MIC90", "setting": "[7]; read-out: MIC90 Value", "value": 0.03, "unit": "µg/mL"}, {"measurement": "MIC90", "setting": "[8]; read-out: MIC90 Geometric Mean", "value": "> 8", "unit": "µg/mL"}, {"measurement": "MIC90", "setting": "[8]; read-out: MIC90 Value", "value": "> 8", "unit": "µg/mL"}, {"measurement": "MIC90 Range", "setting": "[9]", "value": "0.03 to 8", "unit": "µg/mL"}, {"measurement": "MIC90", "setting": "[9]; read-out: MIC90 Geometric Mean", "value": 0.099, "unit": "µg/mL"}, {"measurement": "MIC90", "setting": "[9]; read-out: MIC90 Value", "value": 0.12, "unit": "µg/mL"}, {"measurement": "MIC90", "setting": "[10]; read-out: MIC90 Geometric Mean", "value": 3.65, "unit": "µg/mL"}, {"measurement": "MIC90", "setting": "[10]; read-out: MIC90 Value", "value": 8, "unit": "µg/mL"}, {"measurement": "MIC90", "setting": "[11]", "value": 6.35, "unit": "µg/mL"}, {"measurement": "MIC90", "setting": "[12]; read-out: MIC90 Geometric Mean", "value": 1.43, "unit": "µg/mL"}, {"measurement": "MIC90", "setting": "[12]; read-out: MIC90 Value", "value": "> 8", "unit": "µg/mL"}, {"measurement": "MIC90", "setting": "[13]; read-out: MIC90 Geometric Mean", "value": 5.43, "unit": "µg/mL"}, {"measurement": "MIC90", "setting": "[13]; read-out: MIC90 Value", "value": "> 8", "unit": "µg/mL"}, {"measurement": "MIC90", "setting": "[14]; read-out: MIC90 Geometric Mean", "value": 0.344, "unit": "µg/mL"}, {"measurement": "MIC90", "setting": "[14]; read-out: MIC90 Value", "value": 0.5, "unit": "µg/mL"}, {"measurement": "MIC90 Range", "setting": "[15]", "value": "0.12 to 0.5", "unit": "µg/mL"}, {"measurement": "MIC90", "setting": "[15]; read-out: MIC90 Geometric Mean", "value": 0.293, "unit": "µg/mL"}, {"measurement": "MIC90", "setting": "[15]; read-out: MIC90 Value", "value": 0.5, "unit": "µg/mL"}, {"measurement": "MIC90", "setting": "[16]", "value": 2, "unit": "µg/mL"}, {"measurement": "MIC90 Range", "setting": "[17]", "value": "0.12 to 0.5", "unit": "µg/mL"}, {"measurement": "MIC90", "setting": "[17]", "value": 0.25, "unit": "µg/mL"}]}
{"smiles": "C[C@H]1COc2c(N3CCN(C)CC3)c(F)cc3c(=O)c(C(=O)O)cn1c23", "note": "[LVFX, levofloxacin]", "values": [{"measurement": "MIC90", "setting": "[16]", "value": 4, "unit": "µg/mL"}, {"measurement": "MIC90 Range", "setting": "[17]", "value": "0.5 to 2", "unit": "µg/mL"}, {"measurement": "MIC90", "setting": "[17]", "value": 1, "unit": "µg/mL"}]}
{"smiles": "COc1c(N2C[C@@H]3CCCN[C@@H]3C2)c(F)cc2c(=O)c(C(=O)O)cn(C3CC3)c12", "note": "[MOFX, moxifloxacin]", "values": [{"measurement": "MIC90", "setting": "[5]; read-out: MIC90 Geometric Mean", "value": 2.75, "unit": "µg/mL"}, {"measurement": "MIC90", "setting": "[5]; read-out: MIC90 Value", "value": "> 8", "unit": "µg/mL"}, {"measurement": "MIC90 Range", "setting": "[6]", "value": "0.015 to 0.12", "unit": "µg/mL"}, {"measurement": "MIC90", "setting": "[6]; read-out: MIC90 Geometric Mean", "value": 0.047, "unit": "µg/mL"}, {"measurement": "MIC90", "setting": "[6]; read-out: MIC90 Value", "value": 0.12, "unit": "µg/mL"}, {"measurement": "MIC90 Range", "setting": "[7]", "value": "0.015 to 0.06", "unit": "µg/mL"}, {"measurement": "MIC90", "setting": "[7]; read-out: MIC90 Geometric Mean", "value": 0.03, "unit": "µg/mL"}, {"measurement": "MIC90", "setting": "[7]; read-out: MIC90 Value", "value": 0.06, "unit": "µg/mL"}, {"measurement": "MIC90", "setting": "[8]; read-out: MIC90 Geometric Mean", "value": 6.92, "unit": "µg/mL"}, {"measurement": "MIC90", "setting": "[8]; read-out: MIC90 Value", "value": "> 8", "unit": "µg/mL"}, {"measurement": "MIC90 Range", "setting": "[9]", "value": "0.015 to 8", "unit": "µg/mL"}, {"measurement": "MIC90", "setting": "[9]; read-out: MIC90 Geometric Mean", "value": 0.057, "unit": "µg/mL"}, {"measurement": "MIC90", "setting": "[9]; read-out: MIC90 Value", "value": 0.12, "unit": "µg/mL"}, {"measurement": "MIC90", "setting": "[10]; read-out: MIC90 Geometric Mean", "value": 2.69, "unit": "µg/mL"}, {"measurement": "MIC90", "setting": "[10]; read-out: MIC90 Value", "value": 8, "unit": "µg/mL"}, {"measurement": "MIC90", "setting": "[11]", "value": 6.35, "unit": "µg/mL"}, {"measurement": "MIC90", "setting": "[12]; read-out: MIC90 Geometric Mean", "value": 1.12, "unit": "µg/mL"}, {"measurement": "MIC90", "setting": "[12]; read-out: MIC90 Value", "value": "> 8", "unit": "µg/mL"}, {"measurement": "MIC90", "setting": "[13]; read-out: MIC90 Geometric Mean", "value": 3.68, "unit": "µg/mL"}, {"measurement": "MIC90", "setting": "[13]; read-out: MIC90 Value", "value": "> 8", "unit": "µg/mL"}, {"measurement": "MIC90", "setting": "[14]; read-out: MIC90 Geometric Mean", "value": 0.209, "unit": "µg/mL"}, {"measurement": "MIC90", "setting": "[14]; read-out: MIC90 Value", "value": 0.25, "unit": "µg/mL"}, {"measurement": "MIC90 Range", "setting": "[15]", "value": "0.06 to 0.25", "unit": "µg/mL"}, {"measurement": "MIC90", "setting": "[15]; read-out: MIC90 Geometric Mean", "value": 0.217, "unit": "µg/mL"}, {"measurement": "MIC90", "setting": "[15]; read-out: MIC90 Value", "value": 0.25, "unit": "µg/mL"}, {"measurement": "MIC90 Range", "setting": "[17]", "value": "0.06 to 0.25", "unit": "µg/mL"}, {"measurement": "MIC90", "setting": "[17]", "value": 0.12, "unit": "µg/mL"}]}
